Data taken from ChEMBL document CHEMBL3091315, “PDE2 inhibition: potential for the treatment of cognitive disorders” (Bioorg Med Chem Lett, 2013).
One block for each compound: values may come before it.

Key:
[1] = biological target: T1, cAMP and cAMP-inhibited cGMP 3',5'-cyclic phosphodiesterase 10A (Homo sapiens, UniProt Q9Y233); assay: Inhibition of recombinant PDE10A (unknown origin) expressed in baculovirus infected insect SF-21 cells using [3H]-cAMP as substrate after 30 mins by liquid scintillation counting analysis
T1 sequence (Q9Y233 whole entry): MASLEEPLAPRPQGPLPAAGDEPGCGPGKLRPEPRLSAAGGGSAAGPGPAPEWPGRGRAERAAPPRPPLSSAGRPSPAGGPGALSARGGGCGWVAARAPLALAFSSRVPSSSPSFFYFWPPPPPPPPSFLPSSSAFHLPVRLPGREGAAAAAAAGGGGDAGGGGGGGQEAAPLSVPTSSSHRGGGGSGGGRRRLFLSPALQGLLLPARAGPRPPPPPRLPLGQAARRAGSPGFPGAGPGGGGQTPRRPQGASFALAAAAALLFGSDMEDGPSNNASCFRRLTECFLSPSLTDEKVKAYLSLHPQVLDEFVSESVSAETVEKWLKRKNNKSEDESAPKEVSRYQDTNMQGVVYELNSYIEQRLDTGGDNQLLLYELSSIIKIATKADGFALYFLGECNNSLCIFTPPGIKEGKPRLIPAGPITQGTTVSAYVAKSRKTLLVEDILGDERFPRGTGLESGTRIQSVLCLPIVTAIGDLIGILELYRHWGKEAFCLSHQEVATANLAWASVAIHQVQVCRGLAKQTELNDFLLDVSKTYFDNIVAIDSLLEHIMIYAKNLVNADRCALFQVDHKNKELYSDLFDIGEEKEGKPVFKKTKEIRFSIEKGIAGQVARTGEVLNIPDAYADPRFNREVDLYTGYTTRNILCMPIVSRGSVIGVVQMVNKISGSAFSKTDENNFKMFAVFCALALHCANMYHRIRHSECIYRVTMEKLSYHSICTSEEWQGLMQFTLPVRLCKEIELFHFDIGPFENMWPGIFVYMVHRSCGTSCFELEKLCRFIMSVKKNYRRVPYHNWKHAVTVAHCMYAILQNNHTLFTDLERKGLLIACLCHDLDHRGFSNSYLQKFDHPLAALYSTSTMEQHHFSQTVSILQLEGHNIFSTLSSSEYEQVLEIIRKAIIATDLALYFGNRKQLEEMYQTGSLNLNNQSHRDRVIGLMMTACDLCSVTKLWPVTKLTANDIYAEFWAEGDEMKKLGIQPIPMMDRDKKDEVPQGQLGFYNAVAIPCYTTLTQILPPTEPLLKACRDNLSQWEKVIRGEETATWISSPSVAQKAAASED

Homo sapiens [2] = species: Homo sapiens; assay: Selectivity ratio of IC50 for PDE9A (unknown origin) to IC50 for full length recombinant human PDE2A; settings: tested as the 18F-labelled form
Homo sapiens [3] = species: Homo sapiens; assay: Selectivity ratio of IC50 for PDE11 (unknown origin) to IC50 for full length recombinant human PDE2A; settings: tested as the 18F-labelled form
Homo sapiens [4] = species: Homo sapiens; assay: Selectivity ratio of IC50 for PDE1B (unknown origin) to IC50 for full length recombinant human PDE2A; settings: tested as the 18F-labelled form
Homo sapiens [5] = species: Homo sapiens; assay: Selectivity ratio of IC50 for PDE7B (unknown origin) to IC50 for full length recombinant human PDE2A; settings: tested as the 18F-labelled form
Homo sapiens [6] = species: Homo sapiens; assay: Selectivity ratio of IC50 for PDE5A (unknown origin) to IC50 for full length recombinant human PDE2A; settings: tested as the 18F-labelled form
Homo sapiens [7] = species: Homo sapiens; assay: Selectivity ratio of IC50 for PDE6A (unknown origin) to IC50 for full length recombinant human PDE2A; settings: tested as the 18F-labelled form
Homo sapiens [8] = species: Homo sapiens; assay: Selectivity ratio of IC50 for PDE3A (unknown origin) to IC50 for full length recombinant human PDE2A; settings: tested as the 18F-labelled form
Homo sapiens [9] = species: Homo sapiens; assay: Selectivity ratio of IC50 for PDE4D (unknown origin) to IC50 for full length recombinant human PDE2A; settings: tested as the 18F-labelled form
Homo sapiens [10] = species: Homo sapiens; assay: Selectivity ratio of IC50 for PDE8B (unknown origin) to IC50 for full length recombinant human PDE2A; settings: tested as the 18F-labelled form
[11] = Ratio of unbound drug level in brain to plasma in rat; settings: brain and plasma (unbound), read-out: K(p,uu,brain)
Cerebellum [12] = assay: Biodistribution in cerebellum of rat measured at 2 mins by microPET image analysis; format: ADME, organism-based; settings: in vivo
Cerebellum [13] = assay: Biodistribution in cerebellum of rat measured at 10 mins by microPET image analysis; format: ADME, organism-based; settings: in vivo
Cerebrum [14] = assay: Biodistribution in cerebrum of rat measured at 2 mins by microPET image analysis; format: ADME, organism-based; settings: in vivo
Cerebrum [15] = assay: Biodistribution in cerebrum of rat measured at 10 mins by microPET image analysis; format: ADME, organism-based; settings: in vivo
[16] = biological target: T2, cGMP-dependent 3',5'-cyclic phosphodiesterase (Homo sapiens, UniProt O00408)
T2 sequence (O00408 whole entry): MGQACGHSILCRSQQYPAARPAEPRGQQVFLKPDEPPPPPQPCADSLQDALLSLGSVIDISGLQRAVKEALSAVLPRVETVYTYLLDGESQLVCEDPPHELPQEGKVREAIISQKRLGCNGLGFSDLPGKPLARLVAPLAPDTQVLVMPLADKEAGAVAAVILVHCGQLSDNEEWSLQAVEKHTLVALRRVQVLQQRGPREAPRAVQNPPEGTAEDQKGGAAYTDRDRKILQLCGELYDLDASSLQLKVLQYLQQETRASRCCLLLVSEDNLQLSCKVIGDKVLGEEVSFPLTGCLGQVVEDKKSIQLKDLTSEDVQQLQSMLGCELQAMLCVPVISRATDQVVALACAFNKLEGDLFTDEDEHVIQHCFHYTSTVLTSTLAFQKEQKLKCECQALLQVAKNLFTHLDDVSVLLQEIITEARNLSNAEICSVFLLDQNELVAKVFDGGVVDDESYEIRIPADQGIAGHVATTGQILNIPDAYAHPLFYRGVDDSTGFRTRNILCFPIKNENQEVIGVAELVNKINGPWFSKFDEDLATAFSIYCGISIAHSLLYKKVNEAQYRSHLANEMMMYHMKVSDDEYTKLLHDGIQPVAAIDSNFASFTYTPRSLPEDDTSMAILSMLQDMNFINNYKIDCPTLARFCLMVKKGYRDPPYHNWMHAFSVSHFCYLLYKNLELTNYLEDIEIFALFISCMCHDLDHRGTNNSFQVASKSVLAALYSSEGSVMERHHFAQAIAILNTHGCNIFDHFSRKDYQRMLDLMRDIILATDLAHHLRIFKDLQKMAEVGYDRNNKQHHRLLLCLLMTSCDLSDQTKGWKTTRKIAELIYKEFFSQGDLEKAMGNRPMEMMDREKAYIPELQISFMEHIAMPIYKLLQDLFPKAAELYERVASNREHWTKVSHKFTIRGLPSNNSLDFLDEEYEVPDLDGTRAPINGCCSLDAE
Description: Inhibition of PDE2A (unknown origin) using tritium labeled cAMP as substrate after 1 hr by scintillation proximity assay

[17] = biological target: T1, cAMP and cAMP-inhibited cGMP 3',5'-cyclic phosphodiesterase 10A
Description: Inhibition of PDE10A (unknown origin) using tritium labeled cAMP as substrate after 1 hr by scintillation proximity assay

[18] = Half life in iv dosed rat; format: ADME, organism-based; settings: in vivo
[19] = Clearance in iv dosed rat; format: ADME, organism-based; settings: in vivo
[20] = Drug uptake in Wistar rat striatum at 0.03 mg/kg, iv after 5 mins by LC-MS analysis; format: ADME, organism-based; set-up: dose 0.03 mg/kg, route intravenous; settings: read-out: Drug uptake
Homo sapiens [21] = species: Homo sapiens; assay: Selectivity ratio of IC50 for human PDE10A to IC50 for human PDE2A
Bos taurus [22] = species: Bos taurus; assay: Inhibition of bovine vascular smooth muscle PDE3 using cAMP/cGMP as substrate at 10 uM relative to control; format: tissue-based; settings: Muscle tissue
Bos taurus [23] = species: Bos taurus; assay: Inhibition of bovine vascular smooth muscle PDE4 using cAMP/cGMP as substrate at 10 uM relative to control; format: tissue-based; settings: Muscle tissue
[24] = biological target: T2, cGMP-dependent 3',5'-cyclic phosphodiesterase; format: cell-based, SF-21
Description: Inhibition of recombinant PDE2A (unknown origin) expressed in baculovirus infected insect SF-21 cells using [3H]-cAMP as substrate after 30 mins by liquid scintillation counting analysis

[25] = Inhibition of pig/bovine heart myocardium PDE2 after 15 mins by scintillation proximity assay in presence of [3H]-cAMP; format: tissue-based
[26] = Selectivity ratio of IC50 for PDE (unknown origin) to IC50 for porcine/bovine heart myocardium PDE2; format: tissue-based
[27] = Selectivity ratio of IC50 for porcine/bovine PDE1C to IC50 for porcine/bovine heart myocardium PDE2; format: tissue-based

Structure (SMILES): Cc1ccc2nc(C)c3nnc(-c4cc(OCCCC(F)(F)F)ccc4Cl)n3c2c1
IC50 [1]: > 1000 nM

Ratio IC50 (Homo sapiens [2]): > 20000
Ratio IC50 (Homo sapiens [3]): > 20000
Ratio IC50 (Homo sapiens [4]): > 20000
Ratio IC50 (Homo sapiens [5]): > 20000
Ratio IC50 (Homo sapiens [6]): > 20000
Ratio IC50 (Homo sapiens [7]): > 20000
Ratio IC50 (Homo sapiens [8]): > 20000
Ratio IC50 (Homo sapiens [9]): > 20000
Ratio IC50 (Homo sapiens [10]): > 20000
Structure (SMILES): Cc1nc(-c2cnn(C)c2-c2ccc(C(F)(F)F)cc2)c2c(N3CC(F)C3)ncnn12

Kp uu [11]: 0.5
Structure (SMILES): Cc1nc(-c2cnn(C)c2-c2ccc(C(F)(F)F)cn2)c2c(N3CCC3)ncnn12 [PF-05180999]

Drug uptake (Cerebellum [12]): 96%
Drug uptake (Cerebellum [13]): 82%
Drug uptake (Cerebrum [14]): 96%
Drug uptake (Cerebrum [15]): 92%
Structure (SMILES): Cc1nc2ccc(CN3CCOCC3)cc2n2c(-c3c([18F])cccc3Cl)nnc12

IC50 [16]: 6 nM
IC50 [17]: 9 nM
Structure (SMILES): COc1cccc2nc(C)c3nnc(-c4ccccc4Cl)n3c12

half-life [18]: 0.5 h
clearance [19]: 70 mL/min/kg
Structure (SMILES): CCC(CC)c1nn(CCO)c2c1N=C(c1ccc(-n3ccnc3C)cc1)CNC2=O

concentration at 5 min [20]: 70 ng/g
Ratio IC50 (Homo sapiens [21]): > 600
Structure (SMILES): Cc1nc2ccc(CN3CCOCC3)cc2n2c(-c3ccccc3Cl)nnc12

Structure (SMILES): COc1cc2c(cc1-c1ccccc1)C(c1cccc(C(N)=O)c1)=NCC(=O)N2C
inhibition (Bos taurus [22]): 23%
inhibition (Bos taurus [23]): 14%

IC50 [24]: 4 nM
Structure (SMILES): COc1ccc2nnc3c(C)nc(-c4ccccc4Cl)n3c2n1

IC50 [25]: 2 nM
Structure (SMILES): COc1ccc(Cc2nc(O)c3c(C)nc([C@@H](CCCc4ccccc4)[C@@H](C)O)n3n2)cc1OC
Ratio IC50 [26]: > 100
Ratio IC50 [27]: 50

half-life [18]: 1.5 h
clearance [19]: 27 mL/min/kg
Structure (SMILES): COc1ncc(-c2cc(C3=Nc4c(C(C)(C)C)nn(CCO)c4C(=O)NC3)ccc2OC)cn1
